# In US4096252A, “4-Trifluoromethylbenzoic acid derivatives as thromboembolic agents” (priority 1976, dated 1978):
# Tested on: rat platelet aggregation
# Assay: In vitro inhibition of rat platelet aggregation (Born and Cross method)
# Format: cell-based
# Conditions: epinephrine as aggregating agent
# Description: Platelet aggregation was measured according to the method of Born and Cross (8) by using rat and human plasma.
structure (smiles),measurement,value
"CNC[C@H](O)c1ccc(O)c(O)c1 [epinephrine, reference compound]",influence on rat platelets,no
